Converted amounts (≈) assume the structure as drawn.
Tested on: L1210
Assay: Cytotoxicity against mouse L1210 cells
Type: functional, cell-based

SMILES: C=C1/C=C(\C)C(C)(O)CC(O)CC(=O)C(O)C(O)C(C)CC(C)OC(=O)/C(C)=C/CC/C=C/C(OC)C(O)CC(C)C1 (stereo unspecified)
- IC50: 0.081 µg/mL (≈ 0.136 µM)

Reference: ChEMBL document CHEMBL1147307, “Cytotoxic macrolides from a cultured marine dinoflagellate of the genus Amphidinium” (J Nat Prod, 1989)
